# Article PMC10274570, “Preclinical characterization of WB737, a potent and selective STAT3 inhibitor, in natural killer/T‐cell lymphoma” (MedComm, 2023)
# Assays:
# [1] = target: T1, signal transducer and activator of transcription 3 (STAT3) (Homo sapiens, UniProt P40763); experiment: microscale thermophoresis with labeled purified His-STAT3 […]-722 (reference inhibitor); format: binding
# T1 construct: His-STAT3 127-722
# [2] = target: T1, signal transducer and activator of transcription 3 (STAT3); experiment: microscale thermophoresis with labeled purified His-STAT3 […]-722; format: binding
# T1 sequence (P40763 127-722): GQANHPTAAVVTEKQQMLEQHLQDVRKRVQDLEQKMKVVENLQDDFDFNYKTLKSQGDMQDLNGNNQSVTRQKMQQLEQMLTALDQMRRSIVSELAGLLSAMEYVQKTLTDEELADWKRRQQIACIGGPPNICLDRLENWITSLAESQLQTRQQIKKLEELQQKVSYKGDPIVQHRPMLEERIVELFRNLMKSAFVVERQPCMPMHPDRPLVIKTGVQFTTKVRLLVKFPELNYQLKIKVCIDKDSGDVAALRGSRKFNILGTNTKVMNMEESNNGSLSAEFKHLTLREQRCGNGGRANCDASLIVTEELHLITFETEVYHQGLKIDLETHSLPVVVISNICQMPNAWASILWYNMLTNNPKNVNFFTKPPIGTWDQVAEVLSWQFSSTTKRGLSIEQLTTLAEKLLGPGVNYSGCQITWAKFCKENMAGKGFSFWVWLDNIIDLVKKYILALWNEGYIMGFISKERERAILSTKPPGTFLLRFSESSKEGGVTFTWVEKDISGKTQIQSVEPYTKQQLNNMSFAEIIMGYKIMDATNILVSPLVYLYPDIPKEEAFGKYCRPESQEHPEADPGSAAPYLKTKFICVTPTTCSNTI
compound,measurement,setting,value
O=[N+]([O-])c1ccc2c(c1)S(=O)(=O)C=C2 [Stattic],Kd,[1],6.51 ± 0.82 µM
WB737,Kd,[2],0.00134 ± 0.00019 µM
